Consider 1 compound from patent US6664309B2, “Antimicrobial hot melt adhesive” (priority 2000, dated 2003).

The conditions of series [1]: cited from earlier work.
For series [2], the system named is Gram Positive Bacteria. Description: Bacterial growth testing on inoculated agar plates, nonwoven with adhesive. Particulars: nonwoven with 3 gsm adhesive on inoculated agar plate, 35±2° C., 24 hours, observed for areas of non-growth. The series is classed as cell-based, gram-positive cocci similar to a Staphylococcus type. On the procedure: A control mix, a mix with 0.5% triclosan, and a mix with 0.75% triclosan, were made of each product at 300° F. Each of the adhesives were applied at 300° F. to a standard 15.3 grams/m^2 (gsm) nonwoven substrate on the CT225 coater using a Nordson Control Weave applicator at 0.5 inch wide. The adhesive add-on level was 3 gsm. The pattern was fiberized. The nonwoven/adhesive was combined to release paper for easy removal for testing.
Ready-made petri plates of agar were used for this experiment. Inoculates were prepared using a barium sulfate standard for a turbidity of 150,000,000 bacteria/ml. The plates were inoculated using a sterile swab by streaking bacteria in three directions (to ensure complete coverage). A midline was drawn on each plate with a marker. To one side a piece of nonwoven (0.5×1.0″) was set on the inoculated plate. A sample of nonwoven with adhesive was positioned on the other half. The plates were incubated at 35±2° C. for 24 hours and observed for areas of non-growth. Photographs were taken using a digital camera. The following table outlines the samples tested and the results for each bacteria type.
Because triclosan is a broad-spectrum bacteriostat, it was thought that it would work on both the gram positive and the gram-negative strains. […]

With `Oc1cc(Cl)ccc1Oc1ccc(Cl)cc1Cl` [triclosan, 2,4,4′-trichloro-2′-hydroxy-diphenyl-ether], the Solubility in water result in series [1] is reported as “practically insoluble in water”. In series [2], the “Bacterial growth, Gram Positive Bacteria” value was “effective at inhibiting the growth”.
